Here are results for six compounds from patent US7109338B2, “1,2-disubstituted 1,4-dihydro-4-oxoquinoline compounds” (priority 1999, dated 2006).

Series [1] has as its system HeLa-S3 cells. Description: Cytotoxicity (MTT, without virus), HeLa-S3. As to conditions: HeLa-S3, no virus, incubated for 4 days.
Series [2] concerns HeLa (Ohio strain)cells. Description: Cytotoxicity (MTT, without virus), HeLa(Ohio). The settings on record: HeLa(Ohio), no virus, incubated for 4 days.
The test system of series [3] is HRV 89 (41617-Gallo). The series can be described thus: Anti-rhinovirus activity (MTT), HRV89. It counts as cell-based, human rhinovirus. As to conditions: HeLa (Ohio strain) cells, MTT method, 33° C. Background: Formazan colour is commonly taken as a measure of viable cells.
In series [4] the test system is Poliovirus type 1 (Polio 1, Sabin). Description: microbe, parasite or virus in culture. It counts as cell-based.
In series [5] the test system is echovirus type 11 (Echo 11, Gregory). Description: In vitro anti-picornavirus activity (MTT), Echo 11. As to conditions: HeLa-S3 cells, MTT method, 37° C. The class given is cell-based.
For series [6], the system named is HRV 2 (HGP). The series can be described thus: Anti-rhinovirus activity (MTT), HRV2. It counts as cell-based, human rhinovirus. As to conditions: HeLa (Ohio strain) cells, MTT method, 33° C.
The test system of series [7] is coxsackievirus type A7 (CA7). Description: In vitro anti-picornavirus activity (MTT), CA7. The class given is cell-based. As to conditions: HeLa-S3 cells, MTT method, 37° C.
In series [8] the test system is coxsackievirus type B4 (CB4,JVB). Description: In vitro anti-picornavirus activity (MTT), CB4. The class given is cell-based. The settings on record: HeLa cells, MTT method, 37° C.
Series [9] has as its system HeLa cells. Description: Cytotoxicity (MTT, without virus), HeLa. The settings on record: HeLa, no virus, incubated for 4 days.
For series [10], the system named is human rhinovirus type 1B (HRV 1B, B632). Description: Anti-rhinovirus activity (MTT), HRV1B. The class given is cell-based. As to conditions: HeLa (Ohio strain) cells, MTT method, 33° C.

The structures appear in SMILES notation. ≈ marks a conversion by molar mass, not a printed value.

Consider `CCn1c(-c2ccccc2)c(C)c(=O)c2cc(N3CCOCC3)ccc21` [Compound A169], for which the “Cytotoxicity CC50 HeLa-S3” value in series [1] is more than 50 µg/mL. The “Cytotoxicity CC50 HeLa(Ohio)” value in series [2] is more than 50 µg/mL. In series [3], the “IC50 HRV89” value is 5.4 µg/mL (≈ 15.5 µM). In series [4], the “IC50 Polio 1” value was determined as 4.3 µg/mL (≈ 12.3 µM). For the same compound, the “IC50 Echo 11” value in series [5] came out at 1.1 µg/mL (≈ 3.16 µM). Also, in series [6], the “IC50 HRV2” value worked out at 1.0 µg/mL (≈ 2.87 µM). The “IC50 CA7” value in [7] is more than 50 µg/mL. In series [8], the “IC50 CB4” value stood at 18 µg/mL (≈ 51.7 µM). The “Cytotoxicity CC50 HeLa” value in [9] is more than 50 µg/mL. The “IC50 HRV1B” value in series [10] came to 8.2 µg/mL (≈ 23.5 µM).

Regarding `CCn1c(-c2ccccc2)c(C)c(=O)c2cc(-c3ccccc3)ccc21` [Compound A171], in [1], the “Cytotoxicity CC50 HeLa-S3” value was more than 2.5 µg/mL. The “Cytotoxicity CC50 HeLa(Ohio)” value in [2] is more than 2.5 µg/mL. Besides, the “IC50 HRV89” value in series [3] is 0.39 µg/mL (≈ 1.15 µM). Further, the “IC50 Polio 1” value in [4] was found to be 0.52 µg/mL (≈ 1.53 µM). In series [5], the “IC50 Echo 11” value came out at 0.22 µg/mL (≈ 0.648 µM). In addition, in series [6], the “IC50 HRV2” value was determined as 0.76 µg/mL (≈ 2.24 µM). In addition, the “IC50 CA7” value in series [7] is 1.9 µg/mL (≈ 5.6 µM). Besides, in [8], the “IC50 CB4” value came out at 2.0 µg/mL (≈ 5.89 µM). The “Cytotoxicity CC50 HeLa” value in [9] was more than 2.5 µg/mL. The “IC50 HRV1B” value in series [10] is 0.43 µg/mL (≈ 1.27 µM).

For the compound `CCn1c(-c2ccccc2)c(C)c(=O)c2c(Cl)c(OCC(C)C)ccc21` [Compound A179], in series [1], the “Cytotoxicity CC50 HeLa-S3” value was more than 4 µg/mL. In series [2], the “Cytotoxicity CC50 HeLa(Ohio)” value was more than 4 µg/mL. Besides, in series [3], the “IC50 HRV89” value is 0.37 µg/mL (≈ 1 µM). In addition, the “IC50 Polio 1” value in [4] came to 0.29 µg/mL (≈ 0.784 µM). Besides, in [5], the “IC50 Echo 11” value came out at 0.20 µg/mL (≈ 0.541 µM). For the same compound, the “IC50 HRV2” value in series [6] worked out at 0.87 µg/mL (≈ 2.35 µM). In series [7], the “IC50 CA7” value is 2.4 µg/mL (≈ 6.49 µM). In series [8], the “IC50 CB4” value is 1.2 µg/mL (≈ 3.24 µM). The “Cytotoxicity CC50 HeLa” value in series [9] was more than 4 µg/mL. The “IC50 HRV1B” value in [10] was 0.86 µg/mL (≈ 2.33 µM).

As for `CCn1c(-c2cccc(C)c2)c(C)c(=O)c2c(Cl)c(OCC(C)C)ccc21` [Compound A181], in series [1], the “Cytotoxicity CC50 HeLa-S3” value was more than 2.5 µg/mL. In addition, the “Cytotoxicity CC50 HeLa(Ohio)” value in series [2] is more than 2.5 µg/mL. For the same compound, the “IC50 HRV89” value in [3] worked out at 0.46 µg/mL (≈ 1.2 µM). The “IC50 Polio 1” value in [4] worked out at 0.39 µg/mL (≈ 1.02 µM). Further, in series [5], the “IC50 Echo 11” value stood at 0.24 µg/mL (≈ 0.625 µM). In addition, the “IC50 HRV2” value in series [6] is 0.94 µg/mL (≈ 2.45 µM). The “IC50 CA7” value in series [7] amounted to 2.4 µg/mL (≈ 6.25 µM). Moreover, the “IC50 CB4” value in series [8] worked out at 1.8 µg/mL (≈ 4.69 µM). Also, in series [9], the “Cytotoxicity CC50 HeLa” value is more than 2.5 µg/mL. The “IC50 HRV1B” value in series [10] was found to be 1.6 µg/mL (≈ 4.17 µM).

Consider `Cc1c(OCC(C)C)ccc2c1c(=O)cc(-c1ccccc1)n2C` [Compound A186], for which, in series [1], the “Cytotoxicity CC50 HeLa-S3” value is more than 5 µg/mL. Moreover, in series [2], the “Cytotoxicity CC50 HeLa(Ohio)” value turned out to be 5.0 µg/mL. Also, in series [3], the “IC50 HRV89” value was 0.26 µg/mL (≈ 0.809 µM). The “IC50 Polio 1” value in series [4] was determined as 0.67 µg/mL (≈ 2.08 µM). In addition, in series [5], the “IC50 Echo 11” value stood at 0.27 µg/mL (≈ 0.84 µM). In addition, the “IC50 HRV2” value in series [6] was more than 1.7 µg/mL. Further, the “IC50 CA7” value in [7] is 3.0 µg/mL (≈ 9.33 µM). For the same compound, the “IC50 CB4” value in series [8] was 1.2 µg/mL (≈ 3.73 µM). Moreover, the “Cytotoxicity CC50 HeLa” value in series [9] was more than 5 µg/mL. The “IC50 HRV1B” value in series [10] was determined as 1.1 µg/mL (≈ 3.42 µM).

In the case of `CCn1c(-c2ccccc2)cc(=O)c2c(C)c(OCC(C)C)ccc21` [Compound A187], the “Cytotoxicity CC50 HeLa-S3” value in series [1] was more than 4 µg/mL. Also, the “Cytotoxicity CC50 HeLa(Ohio)” value in series [2] was more than 4 µg/mL. The “IC50 HRV89” value in [3] is 0.15 µg/mL (≈ 0.447 µM). The “IC50 Polio 1” value in series [4] turned out to be 0.53 µg/mL (≈ 1.58 µM). Also, the “IC50 Echo 11” value in [5] worked out at 0.21 µg/mL (≈ 0.626 µM). Also, the “IC50 HRV2” value in series [6] was 0.57 µg/mL (≈ 1.7 µM). The “IC50 CA7” value in series [7] worked out at 3.0 µg/mL (≈ 8.94 µM). Moreover, in series [8], the “IC50 CB4” value is 0.99 µg/mL (≈ 2.95 µM). Further, in series [9], the “Cytotoxicity CC50 HeLa” value is more than 4 µg/mL. Further, the “IC50 HRV1B” value in [10] was determined as 0.71 µg/mL (≈ 2.12 µM).
